The source of these data is patent publication EP4206196A1, “PYRIMIDINE SUBSTITUTED DERIVATIVES AS TYK2 INHIBITORS” (Almirall S.A., priority 2021, dated 2023).

Structures are written as SMILES. A value given as a limit tells only on which side of the number the result lay.

The target in test [1] is T1, TYK2 (JH2domain-pseudokinase) (Homo sapiens, UniProt P29597).
T1 construct: TYK2 (JH2domain-pseudokinase)-tagged T7 phage strains were prepared in an E. coli host derived from the BL21 strain; made in house; host or cells: E. coli BL21-derived host (T7 phage) or HEK-293 cells
Kind of test: TYK2 JH2 domain binding assay (KINOMEscan). Here is the method: TYK2 (JH2domain-pseudokinase) KINOMEscan assay. For the assay, TYK2 (JH2domain-pseudokinase)-tagged T7 phage strains were prepared in an E. coli host derived from the BL21 strain.E. coli were grown to log-phase and infected with T7 phage and incubated with shaking at 32°C until lysis. The lysates were centrifuged and filtered to remove cell debris. The remaining TYK2 (JH2domain-pseudokinase) were produced in HEK-293 cells and subsequently tagged with DNA for qPCR detection. Streptavidin-coated magnetic beads were treated with biotinylated small molecule ligands for 30 minutes at room temperature to generate affinity resins for kinase assays. The liganded beads were blocked with excess biotin and washed with blocking buffer (SeaBlock (Pierce), 1% BSA, 0.05% Tween 20, 1 mM DTT) to remove unbound ligand and to reduce non-specific binding. Binding reactions were assembled by combining TYK2 (JH2domain-pseudokinase), liganded affinity beads, and test compounds in 1x binding buffer (20% SeaBlock, 0.17x PBS, 0.05% Tween 20, 6 mM DTT). Test compounds were prepared as 111X stocks in 100% DMSO. Kds were determined using an 11-point 3-fold compound dilution series with three DMSO control points. All compounds for Kd measurements are distributed by acoustic transfer (non-contact dispensing) in 100% DMSO. The compounds were then diluted directly into the assays such that the final concentration of DMSO was 0.9%. All reactions performed in polypropylene 384-well plate. Each was a final volume of 0.02 ml. The assay plates were incubated at room temperature with shaking for 1 hour and the affinity beads were washed with wash buffer (1x PBS, 0.05% Tween 20). The beads were then re-suspended in elution buffer (1x PBS, 0.05% Tween 20, 0.5 µM non-biotinylated affinity ligand) and incubated at room temperature with shaking for 30 minutes. The kinase concentration in the eluates was measured by qPCR. […]
An 11-point 3-fold serial dilution of each test compound was prepared in 100% DMSO at 100x final test concentration and subsequently diluted to 1x in the assay (final DMSO concentration = 1%). Most Kds were determined using a compound top concentration = 30,000 nM. If the initial Kd determined was < 0.5 nM (the lowest concentration tested), the measurement was repeated with a serial dilution starting at a lower top concentration.
Curves were fitted using a non-linear least square fit with the Levenberg-Marquardt algorithm. […] TABLE 1: Kd Affinities for Tyk2 JH2 Domain Binding Assay.

Test [2] has as its system STAT1/3 through TYK2/JAK1. Briefly: IFNa induced STAT phosphorylation in HEK293 cells (SIE-bla reporter gene). It counts as cell-based. To be noted: Homo sapiens, HEK293; HEK293T-sie-bla cells, IFNa at EC80, 4 hours; read-out: Inhibition of IFNa induced STAT phosphorylation HEK293 cells IC50. As for the experimental part: Stimulation of HEK293T-sie-bla cells with interferon alpha (INFa) activates the signaling pathway of STAT1/3 through TYK2/JAK1. In this assay, measurement of the activity of the reporter gene […]-lactamase expression was used as the readout.
CellSensorTM SIE-bla HEK293T cell line were purchased from Thermo Fisher Scientific (ref. #K1649B) and cultured as specified by the provider. A number of 30.000 cells per well (40 µl) were plated in a 384-well plate (Corning ref.# 3712) and cultured overnight at 37°C with 5% CO2 in a complete Optimem media (ThermoFisher ref. #11058-021) containing 0.5% (v/v) heat inactivated dialyzed FBS (Life Technologies ref. #26400044), 10 µM non-essential aminoacids NEAA (Sigma ref. #M7145), 100 µM Sodium Pyruvate (Gibco ref. #11360-039) and 100 U/mL Penicillin (Sigma ref. #P0781). Compounds were initially dissolved in 100% DMSO. Compound curves were then prepared using a 1/5 serial dilution (10 dilutions). The dilutions were directly diluted in complete Optimem media at 40-fold their final concentration in 20% DMSO. IFNa initial solution (R&D systems ref. #11100-1) was prepared at 10-fold its EC80 in complete Optimem media. Compounds and IFNa were added simultaneously to the wells with cells and incubated during 4 hours at 37°C (the final DMSO was 0.1%). The […]-lactamase substrate (LifeTechnologies ref.#K1138) was prepared at 6-fold its final concentration as specified by the provider. Then 10 µL of the mixture was added to the wells to stop the stimulation. Plate was left in the dark over-night. Then a FRET reading was performed on an appropriate plate reader.
All experiments were analysed using an ExcelFit template and the four-parameter log equation. […] TABLE 2: IC50 Inhibitions of IFNa induced STAT phosphorylation in HEK293 cells
For orientation: Reporter assays use an easily measured gene product as a stand-in for the process of interest.

T1 sequence (P29597 589-875 limits assumed): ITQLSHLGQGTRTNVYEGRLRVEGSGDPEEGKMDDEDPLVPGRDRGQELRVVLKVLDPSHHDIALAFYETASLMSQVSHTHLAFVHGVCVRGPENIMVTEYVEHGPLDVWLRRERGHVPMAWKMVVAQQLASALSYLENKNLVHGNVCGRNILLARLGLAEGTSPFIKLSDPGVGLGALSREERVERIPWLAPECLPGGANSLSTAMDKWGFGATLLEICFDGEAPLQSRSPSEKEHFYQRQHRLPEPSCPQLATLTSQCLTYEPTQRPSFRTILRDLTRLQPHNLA

The Kd is the equilibrium constant for the complex coming apart. Read a low Kd as a tighter complex. As usually defined, the IC50 is the point on the concentration scale where inhibition reaches its midpoint. In turn, `COc1ccccc1Nc1cc(NC(=O)C2CC2)ncn1` [Example 2, N-[6-(2-methoxyanilino)pyrimidin-4-yl]cyclopropanecarboxamide] returned a Kd in test [1] of over 10 nM. Moreover, the IC50 in test [2] was over 1000 nM.

In test [1], `COc1c(C)cccc1Nc1cc(NC(=O)C2CC2)ncn1` [Example 3, N-[6-(2-methoxy-3-methyl-anilino)pyrimidin-4-yl]cyclopropanecarboxamide] registered a dissociation constant Kd of 1 to 10 nM. Moreover, the IC50 in test [2] is over 1000 nM.

In turn, `COc1cccc(Nc2cc(Nc3cc(C)nc(C)n3)ncn2)c1` [Example 5, N6-(2,6-dimethylpyrimidin-4-yl)-N4-(3-methoxyphenyl)pyrimidine-4,6-diamine] gave a Kd in test [1] of 1 to 10 nM. Also, the IC50 in test [2] is over 1000 nM.

`COc1c(F)cccc1Nc1cc(Nc2cc(C)nc(C)n2)ncn1` [Example 7, N6-(2,6-dimethylpyrimidin-4-yl)-N4-(3-fluoro-2-methoxy-phenyl) pyrimidine-4,6-diamine] gave a Kd in test [1] of over 10 nM. Besides, in test [2], the half-inhibitory concentration (IC50) is over 1000 nM.

Compound `COc1ccc(C)nc1Nc1cc(Nc2cc(C)nc(C)n2)ncn1` [Example 8, N4-(2,6-dimethylpyrimidin-4-yl)-N6-(3-methoxy-6-methyl-2-pyridyl)pyrimidine-4,6-diamine] gave a dissociation constant Kd in test [1] of over 10 nM. The IC50 in test [2] is over 1000 nM.

Take `COc1c(C)cccc1Nc1cc(Nc2cnn(C3CCOCC3)c2)ncn1` [Example 9, N4-(2-methoxy-3-methyl-phenyl)-N6-(1-tetrahydropyran-4-ylpyrazol-4-yl)pyrimidine-4,6-diamine]: in test [1], the dissociation constant (Kd) is over 10 nM. The IC50 in test [2] was over 1000 nM.

Compound `Cc1cc(Nc2cc(Nc3ccccc3OC(F)(F)F)ncn2)nc(C)n1` [Example 10, N6-(2,6-dimethylpyrimidin-4-yl)-N4-[2-(trifluoromethoxy)phenyl] pyrimidine-4,6-diamine] had a Kd in test [1] of over 10 nM. For the same compound, the 50% inhibitory concentration (IC50) in test [2] was over 1000 nM.

As to `Cc1cc(Nc2cc(Nc3ccccc3S(C)(=O)=O)ncn2)nc(C)n1` [Example 11, N6-(2,6-dimethylpyrimidin-4-yl)-N4-(2-methylsulfonylphenyl)pyrimidine-4,6-diamine], the dissociation constant Kd in test [1] fell in the range of 0.2 to 1 nM. In addition, in test [2], the 50% inhibitory concentration (IC50) lay in the range of 10 to 100 nM.

Turning to `COc1ccc(Nc2cc(Nc3cc(C)nc(C)n3)ncn2)c(OC)c1` [Example 17, N4-(2,4-dimethoxyphenyl)-N6-(2,6-dimethylpyrimidin-4-yl)pyrimidine-4,6-diamine], in test [2], the half-inhibitory concentration (IC50) is over 1000 nM.

Take `Cc1cc(Nc2cc(Nc3cnccc3N(C)S(C)(=O)=O)ncn2)nc(C)n1` [Example 35, N-[3-[[6-[(2,6-dimethylpyrimidin-4-yl)amino]pyrimidin-4-yl]amino]pyridin-4-yl]-N-methylmethanesulfonamide]: the dissociation constant Kd in test [1] is over 10 nM.

Consider `COc1c(Nc2cc(Nc3cc(C)nc(C)n3)ncn2)cccc1-c1ncn(C(F)F)n1` [Example 54, N4-[3-[1-(difluoromethyl)-1,2,4-triazol-3-yl]-2-methoxy-phenyl]-N6-(2,6-dimethylpyrimidin-4-yl)pyrimidine-4,6-diamine], for which the IC50 in test [2] lay within 100 to 1000 nM.

With `COc1c(Nc2cc(Nc3cc(C)nc(C)n3)ncn2)cccc1C1CCCCO1` (stereo not shown) [Example 56, N6-(2,6-dimethylpyrimidin-4-yl)-N4-(2-methoxy-3-tetrahydropyran-2-yl-phenyl)pyrimidine-4,6-diamine], the IC50 in test [2] was over 1000 nM.

Regarding `COc1c(Nc2cc(Nc3cc(C)nc(C)n3)ncn2)cccc1-c1ncn(CC2CCCOC2)n1` (stereo not shown) [Example 57, N4-(2,6-dimethylpyrimidin-4-yl)-N6-[2-methoxy-3-[1-(tetrahydropyran-3-ylmethyl)-1,2,4-triazol-3-yl]phenyl]pyrimidine-4,6-diamine], the IC50 in test [2] is 10 to 100 nM.

As for `COc1c(Nc2cc(Nc3cc(C)nc(C)n3)ncn2)cccc1-c1ncn(C2CC(O)C2)n1` (stereo not shown) [Example 58, 3-[3-[3-[[6-[(2,6-dimethylpyrimidin-4-yl)amino]pyrimidin-4-yl]amino]-2-methoxy-phenyl]-1,2,4-triazol-1-yl]cyclobutanol], the IC50 in test [2] lay within 100 to 1000 nM.

Turning to `COc1c(Nc2cc(Nc3cc(C)nc(C)n3)ncn2)cccc1-c1ncn(CC2CCCO2)n1` (stereo not shown) [Example 59, N4-(2,6-dimethylpyrimidin-4-yl)-N6-[2-methoxy-3-[1-(tetrahydrofuran-2-ylmethyl)-1,2,4-triazol-3-yl]phenyl]pyrimidine-4,6-diamine], in test [2], the IC50 fell in the range of 10 to 100 nM.

Regarding `COc1c(Nc2cc(Nc3cc(C)nc(C)n3)ncn2)cccc1-c1ncn(CC2CCOC2)n1` (stereo not shown) [Example 60, N6-(2,6-dimethylpyrimidin-4-yl)-N4-[2-methoxy-3-[1-(tetrahydrofuran-3-ylmethyl)-1,2,4-triazol-3-yl]phenyl]pyrimidine-4,6-diamine], in test [2], the 50% inhibitory concentration (IC50) lay in the range of 10 to 100 nM.

Consider `Cc1cc(Nc2cc(Nc3ccccc3-c3ncn(C)n3)ncn2)nc(C)n1` [Example 79, N6-(2,6-dimethylpyrimidin-4-yl)-N4-[2-(1-methyl-1,2,4-triazol-3-yl)phenyl]pyrimidine-4,6-diamine], for which, in test [2], the IC50 was over 1000 nM.

Consider `COc1cc(-c2nc(C(F)(F)F)n(C)n2)ccc1Nc1cc(Nc2cc(C)nc(C)n2)ncn1` [Example 82, N6-(2,6-dimethylpyrimidin-4-yl)-N4-[2-methoxy-4-[1-methyl-5-(trifluoromethyl)-1,2,4-triazol-3-yl]phenyl]pyrimidine-4,6-diamine], for which the Kd in test [1] lay within 1 to 10 nM.

For `[2H]C([2H])([2H])N(c1cc(-c2cnn(C)c2C)ccc1Nc1cc(Nc2cc(C)nc(C)n2)ncn1)S(C)(=O)=O` [Example 98, N-[5-(1,5-dimethylpyrazol-4-yl)-2-[[6-[(2,6-dimethylpyrimidin-4-yl)amino]pyrimidin-4-yl]amino]phenyl]-N-(trideuteriomethyl)methanesulfonamide], the 50% inhibitory concentration (IC50) in test [2] was over 1000 nM.

As to `CN=S(C)(=O)c1cc(C2CC2)ccc1Nc1cc(Nc2cc(C)nc(C)n2)ncn1` (stereo not shown) [Example 118, N4-[4-cyclopropyl-2-(N,S-dimethylsulfonimidoyl)phenyl]-N6-(2,6-dimethylpyrimidin-4-yl)pyrimidine-4,6-diamine], in test [2], the IC50 is under 10 nM.

`Cc1cc(Nc2cc(Nc3ncc(-c4cnn(C)c4C)cc3[S+](C)[O-])ncn2)nc(C)n1` (stereo not shown) [Example 173, N4-[5-(1,5-dimethylpyrazol-4-yl)-3-methylsulfinyl-2-pyridyl]-N6-(2,6-dimethylpyrimidin-4-yl)pyrimidine-4,6-diamine]: the half-inhibitory concentration (IC50) in test [2] is under 10 nM.

For `COc1c(-c2ncn(C)n2)ccnc1Nc1cc(Nc2ccc(F)c(C)n2)ncn1` [Example 174, N4-(5-fluoro-6-methyl-2-pyridyl)-N6-[3-methoxy-4-(1-methyl-1,2,4-triazol-3-yl)-2-pyridyl]pyrimidine-4,6-diamine], the IC50 in test [2] lay in the range of 10 to 100 nM.

With `Cc1cc(Nc2cc(Nc3ncc(C4CCCCO4)cc3S(C)(=O)=O)ncn2)nc(C)n1` (stereo not shown) [Example 175, 6-N-(2,6-dimethylpyrimidin-4-yl)-4-N-[3-methylsulfonyl-5-(oxan-2-yl)pyridin-2-yl]pyrimidine-4,6-diamine], in test [2], the IC50 was under 10 nM.
